From ChEMBL document CHEMBL1151588, “1,2-diaminobenzimidazoles : Selective inhibitors of nitric oxide synthase derived from aminoguanidine” (Bioorg Med Chem Lett, 1995)

Tests used:
[1] = molecular target: T1, Nitric oxide synthase, inducible (Homo sapiens, UniProt P35228); test: Tested to inhibit the conversion of [3H]-L-arginine to [3H]L-citrulline catalyzed by inducible NOS from human DLD-1 cells at concentration below 100 uM; No significant inhibition; format: cell-based
Nitric oxide synthase 3 [2] = molecular target: T2, Nitric oxide synthase 3 (Homo sapiens, UniProt P29474); test: Tested to inhibit the conversion of [3H]L-arginine to [3H]L-citrulline catalyzed by endothelial NOS from human umbilical vein endothelial cells; No significant inhibition; format: cell-based; details: endothelial cell
T2 sequence (P29474 whole entry): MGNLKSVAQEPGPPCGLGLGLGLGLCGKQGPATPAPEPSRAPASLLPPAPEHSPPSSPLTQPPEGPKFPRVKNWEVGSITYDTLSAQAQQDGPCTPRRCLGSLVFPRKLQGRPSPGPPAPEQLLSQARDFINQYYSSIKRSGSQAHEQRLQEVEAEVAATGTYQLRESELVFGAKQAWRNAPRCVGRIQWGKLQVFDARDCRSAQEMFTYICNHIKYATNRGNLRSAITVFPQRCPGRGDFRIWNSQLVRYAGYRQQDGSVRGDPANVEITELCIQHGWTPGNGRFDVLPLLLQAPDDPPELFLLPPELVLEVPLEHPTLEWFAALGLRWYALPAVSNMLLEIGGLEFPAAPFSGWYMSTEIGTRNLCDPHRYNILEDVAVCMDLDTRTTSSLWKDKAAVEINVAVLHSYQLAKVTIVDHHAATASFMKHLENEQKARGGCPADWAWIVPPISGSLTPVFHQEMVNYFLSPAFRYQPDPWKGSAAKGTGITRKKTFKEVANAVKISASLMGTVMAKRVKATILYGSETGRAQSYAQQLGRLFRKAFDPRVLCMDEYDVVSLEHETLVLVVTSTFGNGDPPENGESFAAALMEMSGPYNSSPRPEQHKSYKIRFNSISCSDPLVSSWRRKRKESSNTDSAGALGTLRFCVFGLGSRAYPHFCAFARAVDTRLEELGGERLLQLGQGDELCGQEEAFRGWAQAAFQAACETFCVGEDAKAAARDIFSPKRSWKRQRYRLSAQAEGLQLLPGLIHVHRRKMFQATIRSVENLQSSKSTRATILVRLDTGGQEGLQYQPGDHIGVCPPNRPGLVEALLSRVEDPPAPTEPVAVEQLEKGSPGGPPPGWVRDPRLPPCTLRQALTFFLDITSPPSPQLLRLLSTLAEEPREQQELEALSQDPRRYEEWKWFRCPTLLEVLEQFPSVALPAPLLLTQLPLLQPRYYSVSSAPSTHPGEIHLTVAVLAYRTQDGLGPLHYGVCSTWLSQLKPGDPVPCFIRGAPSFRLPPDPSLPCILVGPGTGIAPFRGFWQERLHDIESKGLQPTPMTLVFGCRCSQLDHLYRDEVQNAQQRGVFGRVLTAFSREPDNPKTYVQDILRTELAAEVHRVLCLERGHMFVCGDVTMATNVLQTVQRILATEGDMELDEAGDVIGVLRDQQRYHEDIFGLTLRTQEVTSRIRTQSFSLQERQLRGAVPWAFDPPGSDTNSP

[3] = molecular target: T3, Nitric oxide synthase, inducible (Mus musculus, UniProt P29477); test: Tested to inhibit the conversion of [3H]L-arginine to [3H]L-citrulline catalyzed by inducible NOS from mouse macrophage J774 cells at concentration below 100 uM; No significant inhibition; format: cell-based
T3 sequence (P29477 whole entry): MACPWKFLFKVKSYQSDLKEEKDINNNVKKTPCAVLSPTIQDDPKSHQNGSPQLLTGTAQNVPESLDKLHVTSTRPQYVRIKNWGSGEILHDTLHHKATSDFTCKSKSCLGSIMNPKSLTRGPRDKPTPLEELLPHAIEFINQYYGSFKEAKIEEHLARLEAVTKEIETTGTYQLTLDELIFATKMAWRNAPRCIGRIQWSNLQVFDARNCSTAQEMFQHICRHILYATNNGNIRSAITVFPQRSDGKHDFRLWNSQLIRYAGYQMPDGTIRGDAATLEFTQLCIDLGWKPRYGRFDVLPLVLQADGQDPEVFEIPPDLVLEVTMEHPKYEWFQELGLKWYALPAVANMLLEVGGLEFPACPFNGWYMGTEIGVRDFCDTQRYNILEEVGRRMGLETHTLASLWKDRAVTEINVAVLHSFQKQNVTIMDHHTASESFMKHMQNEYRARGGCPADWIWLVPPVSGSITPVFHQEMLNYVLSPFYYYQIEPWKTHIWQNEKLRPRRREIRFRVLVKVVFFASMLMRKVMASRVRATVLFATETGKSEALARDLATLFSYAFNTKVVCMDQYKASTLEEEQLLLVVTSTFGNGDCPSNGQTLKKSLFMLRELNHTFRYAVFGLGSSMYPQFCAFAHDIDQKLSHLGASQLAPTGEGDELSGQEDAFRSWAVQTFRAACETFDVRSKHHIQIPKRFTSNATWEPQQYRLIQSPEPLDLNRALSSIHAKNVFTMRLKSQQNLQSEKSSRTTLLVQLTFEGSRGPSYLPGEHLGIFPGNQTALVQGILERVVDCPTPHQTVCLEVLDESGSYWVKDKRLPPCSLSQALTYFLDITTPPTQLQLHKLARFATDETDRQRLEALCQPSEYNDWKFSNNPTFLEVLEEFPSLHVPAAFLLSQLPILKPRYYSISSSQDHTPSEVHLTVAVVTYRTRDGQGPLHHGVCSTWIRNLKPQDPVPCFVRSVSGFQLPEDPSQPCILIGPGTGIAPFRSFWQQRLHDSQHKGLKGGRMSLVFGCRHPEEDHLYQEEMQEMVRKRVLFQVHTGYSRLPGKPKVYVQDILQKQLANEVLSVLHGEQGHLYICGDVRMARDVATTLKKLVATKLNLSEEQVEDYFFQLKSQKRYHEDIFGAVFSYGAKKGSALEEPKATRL

Nitric oxide synthase 1 [4] = molecular target: T4, Nitric oxide synthase 1 (Rattus norvegicus, UniProt P29476); test: Tested to inhibit the conversion of [3H]L-arginine to [3H]L-citrulline catalyzed by neuronal NOS from rat cerebellum.; format: tissue-based
T4 sequence (P29476 whole entry): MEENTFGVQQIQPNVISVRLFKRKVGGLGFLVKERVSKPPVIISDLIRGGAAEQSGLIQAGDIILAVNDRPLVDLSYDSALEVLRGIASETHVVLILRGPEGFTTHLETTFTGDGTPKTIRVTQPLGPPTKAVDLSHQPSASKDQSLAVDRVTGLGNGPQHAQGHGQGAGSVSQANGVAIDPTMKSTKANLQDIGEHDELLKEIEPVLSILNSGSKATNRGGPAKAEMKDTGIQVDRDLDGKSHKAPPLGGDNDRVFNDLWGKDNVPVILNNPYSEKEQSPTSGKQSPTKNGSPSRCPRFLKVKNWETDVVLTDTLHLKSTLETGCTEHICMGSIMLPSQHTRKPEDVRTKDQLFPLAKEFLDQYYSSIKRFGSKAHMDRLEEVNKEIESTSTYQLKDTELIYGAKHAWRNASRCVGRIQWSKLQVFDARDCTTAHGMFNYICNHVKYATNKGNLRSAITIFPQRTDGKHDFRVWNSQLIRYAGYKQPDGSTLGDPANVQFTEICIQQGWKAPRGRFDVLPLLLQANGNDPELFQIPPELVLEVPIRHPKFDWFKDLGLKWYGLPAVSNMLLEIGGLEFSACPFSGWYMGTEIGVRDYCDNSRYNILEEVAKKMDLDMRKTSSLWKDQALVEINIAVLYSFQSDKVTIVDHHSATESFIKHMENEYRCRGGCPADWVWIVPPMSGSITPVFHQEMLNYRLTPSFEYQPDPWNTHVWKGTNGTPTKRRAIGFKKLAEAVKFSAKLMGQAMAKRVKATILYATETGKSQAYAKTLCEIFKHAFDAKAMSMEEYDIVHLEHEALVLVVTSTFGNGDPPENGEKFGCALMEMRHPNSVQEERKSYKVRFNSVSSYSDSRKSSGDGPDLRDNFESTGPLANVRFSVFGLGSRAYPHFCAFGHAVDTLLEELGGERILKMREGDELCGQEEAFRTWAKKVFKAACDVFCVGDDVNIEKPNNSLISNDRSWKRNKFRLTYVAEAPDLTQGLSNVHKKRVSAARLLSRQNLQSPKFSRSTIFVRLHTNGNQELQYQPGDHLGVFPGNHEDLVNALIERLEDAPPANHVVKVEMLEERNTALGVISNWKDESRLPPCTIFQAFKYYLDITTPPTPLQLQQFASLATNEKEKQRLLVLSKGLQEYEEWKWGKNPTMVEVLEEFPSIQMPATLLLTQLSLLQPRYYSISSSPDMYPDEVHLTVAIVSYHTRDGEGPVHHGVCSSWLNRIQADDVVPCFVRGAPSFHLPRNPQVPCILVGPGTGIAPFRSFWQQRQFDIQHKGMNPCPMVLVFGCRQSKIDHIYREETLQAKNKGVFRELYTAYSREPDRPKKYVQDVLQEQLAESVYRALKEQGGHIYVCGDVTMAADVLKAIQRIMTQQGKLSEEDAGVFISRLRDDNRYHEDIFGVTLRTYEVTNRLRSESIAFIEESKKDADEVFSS

[5] = molecular target: T1, Nitric oxide synthase, inducible; test: Tested to inhibit the conversion of [3H]L-arginine to [3H]L-citrulline catalyzed by inducible NOS from human DLD-1 cells.; format: cell-based
Nitric oxide synthase 3 [6] = molecular target: T2, Nitric oxide synthase 3; test: Tested to inhibit the conversion of [3H]L-arginine to [3H]L-citrulline catalyzed by endothelial NOS from human umbilical vein endothelial cells at concentration below 100 uM; No significant inhibition; format: cell-based; details: endothelial cell
[7] = molecular target: T3, Nitric oxide synthase, inducible; test: Tested to inhibit the conversion of [3H]L-arginine to [3H]L-citrulline catalyzed by inducible NOS from mouse macrophage J774 cells; format: cell-based
Nitric oxide synthase 1 [8] = molecular target: T4, Nitric oxide synthase 1; test: Tested to inhibit the conversion of [3H]L-arginine to [3H]L-citrulline catalyzed by neuronal NOS from rat cerebellum at concentration below 100 uM; No significant inhibition

T1 sequence (P35228 whole entry): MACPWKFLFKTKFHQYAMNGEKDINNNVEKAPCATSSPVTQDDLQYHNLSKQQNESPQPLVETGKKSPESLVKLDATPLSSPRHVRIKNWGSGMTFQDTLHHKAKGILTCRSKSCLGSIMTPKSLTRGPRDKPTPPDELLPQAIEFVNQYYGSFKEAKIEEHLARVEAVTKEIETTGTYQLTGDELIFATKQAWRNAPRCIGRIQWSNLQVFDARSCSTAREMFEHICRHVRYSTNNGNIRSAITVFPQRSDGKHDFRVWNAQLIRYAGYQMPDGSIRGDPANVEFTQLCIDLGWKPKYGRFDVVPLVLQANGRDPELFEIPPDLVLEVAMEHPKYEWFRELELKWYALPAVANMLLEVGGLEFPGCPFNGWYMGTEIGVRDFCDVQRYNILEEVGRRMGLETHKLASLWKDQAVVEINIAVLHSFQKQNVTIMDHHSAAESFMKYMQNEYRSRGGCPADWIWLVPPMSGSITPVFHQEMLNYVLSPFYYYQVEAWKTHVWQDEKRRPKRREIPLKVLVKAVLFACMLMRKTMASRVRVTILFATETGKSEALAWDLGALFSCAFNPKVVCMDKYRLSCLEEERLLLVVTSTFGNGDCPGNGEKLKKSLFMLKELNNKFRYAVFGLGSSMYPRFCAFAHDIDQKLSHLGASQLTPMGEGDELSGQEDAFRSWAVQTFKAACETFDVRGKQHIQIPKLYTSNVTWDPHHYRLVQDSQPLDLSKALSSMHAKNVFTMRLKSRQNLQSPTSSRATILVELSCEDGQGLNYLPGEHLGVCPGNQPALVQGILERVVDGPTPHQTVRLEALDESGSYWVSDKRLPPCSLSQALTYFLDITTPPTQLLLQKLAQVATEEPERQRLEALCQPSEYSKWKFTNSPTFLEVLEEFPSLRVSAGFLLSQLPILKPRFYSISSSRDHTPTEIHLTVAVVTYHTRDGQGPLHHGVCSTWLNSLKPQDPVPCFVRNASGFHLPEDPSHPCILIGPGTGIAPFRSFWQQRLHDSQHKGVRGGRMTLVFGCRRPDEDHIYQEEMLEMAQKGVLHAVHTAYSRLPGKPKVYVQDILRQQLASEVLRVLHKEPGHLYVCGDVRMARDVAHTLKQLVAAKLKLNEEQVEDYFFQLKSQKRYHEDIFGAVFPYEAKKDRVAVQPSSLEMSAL

SMILES	IC50 [1]	IC50 (Nitric oxide synthase 3 [2])	IC50 [3]	IC50 (Nitric oxide synthase 1 [4]) [µM]	IC50 [5] [µM]	IC50 (Nitric oxide synthase 3 [6])	IC50 [7] [µM]	IC50 (Nitric oxide synthase 1 [8])
CNn1c(N)nc2ccccc21	Not Active	Not Active	Not Active	5.8				
Nc1nc2ccccc2n1N				77	25	Not Active	31	
O=[N+]([O-])c1cccc2cn[nH]c12 [7-NITROINDAZOLE]					24		20	
N=C(N)NN [PIMAGEDINE]					54	Not Active	9	Not Active
